Results taken from patent US7691862B2, “Method and composition for treating periodontal disease” (Regena Therapeutics LC, priority 2003, dated 2010).
Where two headings read alike, the source gives them in different places. Marks after values point to notes of the source that are not given here.

What was measured:
albumin = albumin (Homo sapiens, UniProt P02768); conditions: cited from earlier work
[1] = in vivo; cited from earlier work
[2] = test system: periodontal pockets of patients with moderate-to-advanced periodontitis; assay: Randomized double-blind placebo-controlled study: change in periodontal pocket probing depth after scaling, root planing and curettage; format: in vivo, human
Procedure: 1.1 Overall Study Design and Plan This was a randomized, double-blind, single-center, multiple-dose, parallel-group, placebo-controlled study. At baseline, patients presenting at Periodontal Specialists of Ames for the treatment of periodontitis were screened for the study. Patients were assessed using medical histories, dental histories, blood pressure, pulse, pregnancy tests (if female), periapical radiographs and periodontal examinations. Patients who met all of the inclusion and exclusion criteria, appeared in good health other than periodontitis, and who had documented moderate-to-advanced periodontitis with at least four destructive periodontal-diseased pockets (ranging from 5 to 12 mm in depth) were eligible for study participation. Each patient underwent a gross debridement, following which, he/she was randomized to one of four treatment groups:
Patients randomized to receive doxycycline (Groups B and C) were administered a loading dose of doxycycline 100 mg BID for one day and then instructed to take doxycycline 100 mg QD for nine consecutive days; patients in Groups A and D received matching doxycycline placebo for ten days.
On the last day of doxycycline/placebo administration, patients reported to the clinical research facility and underwent (under local anesthesia) dental sub-gingival scaling, root planing, and curettage on one side of the mouth. Following completion of these procedures, patients randomized to misoprostol (Groups C and D) received an application of a misoprostol paste (10 ug/site) and those randomized to placebo (Groups A and B) received placebo paste. Patients were instructed to apply the paste to each quadrant four times daily for the next week. One week later, patients returned to the clinical research facility and underwent sub-gingival scaling, root planing, and curettage on the other side of the mouth. The misoprostol/placebo paste was administered as described above. Patients were instructed to apply the paste to the affected teeth four times daily for an additional six weeks. They were also instructed to the proper use of the rubber tip for six weeks.
At two weeks post-treatment, patients were contacted for adverse event monitoring and compliance with study drug administration. Six weeks following the second sub-gingival scaling, planing, and curettage procedure, patients returned to the clinical research facility for periodontal and adverse event assessments. Dental prophylaxis, including periodontal maintenance was repeated at the three month intervals, with final assessments performed at 52 weeks post-treatment.
The initial dose of the misoprostol/placebo paste was applied by the periodontist, and all subsequent doses were applied by the patient. Each affected tooth was wiped with a 2×2 sponge to dry the tissue. Then 0.2 ml of the paste was dispensed from the 10.0 ml syringe onto the tip of the finger and applied to each affected tooth. The patient then sipped a little water and gently flushed the paste to gel it. Patients were instructed not to eat anything for at least one hour.
1.5.1.2.1. Periodontal Pocket Probing Depth Periodontal probing depths were measured at baseline, at six weeks post-treatment, and at 3, 6, 9 and 12 months post-treatment. More recently, a larger study at three weeks post treatment was performed as described in Example
To measure the periodontal pocket probing depth, a manual University of Michigan off-set probe marked in millimeters was inserted into the pocket with the long axis parallel to the long axis of the tooth. Insertion was continued to the base of the pocket with gentle pressure until a distinct resistance was felt.
The measurement from the tip of the probe to the gingival margin (GM-BP, gingival margin to the base of the pocket) was recorded in millimeters. On measurements of proximal sites the gingival margin may cross the probe at an angle, and the highest point on the side of the probe was read. […]

[3] = cited from earlier work
[4] = test system: mammalian calvarial cells; conditions: in vitro culture; cited from earlier work
[5] = test system: canine mandible alveolar bone; conditions: cited from earlier work
[6] = 6 Weeks post-treatment, baseline pocket depth 5 mm
[7] = 6 Weeks post-treatment, baseline pocket depth 6 mm
[8] = 6 Weeks post-treatment, baseline pocket depth 7 mm
[9] = 6 Weeks post-treatment, baseline pocket depth 8 mm
[10] = 6 Weeks post-treatment, baseline pocket depth 9 mm
[11] = 6 Weeks post-treatment, baseline pocket depth 10 mm
[12] = 6 Weeks post-treatment, baseline pocket depth ≦4 mm
[13] = 52 Weeks post-treatment, baseline pocket depth 5 mm
[14] = 52 Weeks post-treatment, baseline pocket depth 6 mm
[15] = 52 Weeks post-treatment, baseline pocket depth 7 mm
[16] = 52 Weeks post-treatment, baseline pocket depth 8 mm
[17] = 52 Weeks post-treatment, baseline pocket depth 9 mm
[18] = 52 Weeks post-treatment, baseline pocket depth 10 mm
[19] = 52 Weeks post-treatment, baseline pocket depth ≦4 mm

Sequence of albumin (P02768 25-609, species assumed): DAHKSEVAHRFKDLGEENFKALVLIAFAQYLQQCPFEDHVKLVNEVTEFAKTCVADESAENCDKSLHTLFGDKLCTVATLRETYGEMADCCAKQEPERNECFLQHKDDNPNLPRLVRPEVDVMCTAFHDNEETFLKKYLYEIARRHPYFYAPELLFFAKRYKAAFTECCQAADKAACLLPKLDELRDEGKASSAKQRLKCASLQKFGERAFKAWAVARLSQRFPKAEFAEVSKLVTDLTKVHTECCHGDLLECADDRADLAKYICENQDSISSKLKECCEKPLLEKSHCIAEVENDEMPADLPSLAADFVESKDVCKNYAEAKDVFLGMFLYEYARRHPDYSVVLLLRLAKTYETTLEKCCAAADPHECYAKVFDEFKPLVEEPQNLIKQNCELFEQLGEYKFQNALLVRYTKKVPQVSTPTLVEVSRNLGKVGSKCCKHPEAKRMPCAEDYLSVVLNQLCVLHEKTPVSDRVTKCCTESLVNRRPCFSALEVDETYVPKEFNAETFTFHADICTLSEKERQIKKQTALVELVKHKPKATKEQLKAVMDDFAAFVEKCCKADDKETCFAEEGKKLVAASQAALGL

Row | SMILES | Mean Changes in Pocket Depths Using Patient as Inference [2, 6] | Mean Changes in Pocket Depths Using Patient as Inference [2, 7] | Mean Changes in Pocket Depths Using Patient as Inference [2, 8] | Mean Changes in Pocket Depths Using Patient as Inference [2, 9] | Mean Changes in Pocket Depths Using Patient as Inference [2, 10] | Mean Changes in Pocket Depths Using Patient as Inference [2, 11] | Mean Changes in Pocket Depths Using Patient as Inference [2, 12] | Mean Changes in Pocket Depths Using Patient as Inference [2, 13] | Mean Changes in Pocket Depths Using Patient as Inference [2, 14] | Mean Changes in Pocket Depths Using Patient as Inference [2, 15] | Mean Changes in Pocket Depths Using Patient as Inference [2, 16] | Mean Changes in Pocket Depths Using Patient as Inference [2, 17] | Mean Changes in Pocket Depths Using Patient as Inference [2, 18] | Mean Changes in Pocket Depths Using Patient as Inference [2, 19] | other results
1 | CCCCC(C)(O)C/C=C/[C@H]1[C@H](O)CC(=O)[C@@H]1CCCCCCC(=O)O (mixture of isomers) [Misoprostolic acid] |  |  |  |  |  |  |  |  |  |  |  |  |  |  | albumin bound (albumin): approximately 85%; half-life [1]: about 30 minutes
2 | CCCC[C@@](C)(O)C/C=C/[C@H]1[C@H](O)CC(=O)[C@@H]1CCCCCCC(=O)OC (racemic) [Misoprostol, methyl-(11α, 13E)-11,16-dihydroxy-16-methyl-9-oxoprost-13-en-1-oate] | 1.57 mm | 2.13 mm | 2.68 mm | 2.84 mm | 4.46* mm | 4.70 mm | 0.58 mm | 1.76*† mm | 2.49† mm | 3.28*† mm | 3.90*† mm | 5.06*† mm | 4.75 mm | 0.75*† mm | improvements in pocket depths compared to scaling, root planning and curettage alone ([2]; 52 weeks post-treatment): statistically significant improvements; mean changes in pocket depths compared to doxycycline+placebo ([2]; 52 weeks post-treatment, Wilcoxon rank-sum): statistically significantly greater improvements; tooth mobility ([2]; along with the decreases in pocket depth): decreases in tooth mobility; patients requiring surgical intervention to stop the progression of the disease ([2]; in vivo): none of the patients; reduction in pocket depth ([2]; original pocket depth 10 mm or greater, after 6 weeks): 40-50%; storage stability ([3]; dissolved in absolute alcohol (ethanol) and frozen): stable for at least a year; storage stability ([3]; dry state, stabilized with hydroxypropyl methyl cellulose): a couple years; stability of creams ([3]; in the presence of water, breaks down to prostaglandin A): creams last approximately only one week
3 | C[C@H]1c2cccc(O)c2C(=O)C2=C(O)[C@]3(O)C(=O)C(C(N)=O)=C(O)[C@@H](N(C)C)[C@@H]3[C@@H](O)[C@@H]21 [Doxycycline] | 1.96* mm | 2.63* mm | 3.04* mm | 3.57* mm | 4.23* mm | 4.13 mm | 0.84 mm | 0.42 mm | 0.79 mm | 1.42 mm | 1.71 mm | 2.86 mm | 3.28 mm | −0.22* mm | improvement in pocket depth (from the Figures) ([2]; pocket depth originally 10 mm, Week 52): 3 mm; reduction in depth (from the Figures) ([2]; pocket depth originally 10 mm, at 6 weeks): ~5 mm
4 | CCCCC[C@H](O)/C=C/[C@H]1[C@H](O)CC(=O)[C@@H]1CCCCCCC(=O)O [PGE1, prostaglandin E1] |  |  |  |  |  |  |  |  |  |  |  |  |  |  | formation of mineralized nodules [4]: increases the formation of mineralized nodules; new bone formation; thickness and appositional rate of alveolar bone ([5]; local application, adult dogs (Marks 1988)): increases the thickness and appositional rate of alveolar bone; alveolar bone height, cementum and periodontal ligaments ([5]; local delivery, premolars and molars of adult dogs (Marks 1994)): increases alveolar bone height and regenerates cementum and periodontal ligaments
